Experimental data as given in PubChem BioAssay (NCI).
Where “and” joins values, the source holds several entries; their conditions need not be identical. Identical values can stand only once.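 Assay format: 96-well plates, 48-hour exposure. Abbreviation: GI50, concentration required for 50% inhibition of growth. At the TGI there is no net growth.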

Columns and labels:
Assay in all cases: NCI anticancer screen, dose series, 48 h
SN12C renal = system: SN12C renal
SK-MEL-5 melanoma = system: SK-MEL-5 melanoma
NCI-H522 lung = system: NCI-H522 lung
MOLT-4 leukemia = system: MOLT-4 leukemia
A498 renal = system: A498 renal
SF-268 CNS = system: SF-268 CNS
SNB-75 CNS = system: SNB-75 CNS
HOP-92 NSCLC = system: HOP-92 NSCLC
NCI-H460 lung = system: NCI-H460 lung
UACC-62 melanoma = system: UACC-62 melanoma

Row | Compound | TGI (SN12C renal) | TGI (SK-MEL-5 melanoma) | TGI (NCI-H522 lung) | TGI (MOLT-4 leukemia) | TGI (A498 renal) | TGI (SF-268 CNS) | TGI (SNB-75 CNS) | TGI (HOP-92 NSCLC) | TGI (NCI-H460 lung) | TGI (UACC-62 melanoma) | GI50 (SN12C renal) | GI50 (SK-MEL-5 melanoma) | GI50 (NCI-H522 lung) | GI50 (MOLT-4 leukemia) | GI50 (A498 renal) | GI50 (SF-268 CNS) | GI50 (SNB-75 CNS) | GI50 (HOP-92 NSCLC) | GI50 (NCI-H460 lung) | GI50 (UACC-62 melanoma)
1 | CN1CCCc2nc3ccccc3n2C1 | > 100 µM | > 100 µM | > 100 µM | > 100 µM | > 100 µM | > 100 µM | > 100 µM | > 100 µM | > 100 µM | > 100 µM |  |  |  |  |  |  |  |  |  | 
2 | CCOC(=O)[C@@H](C)C[C@H](Cc1ccccc1)NC(=O)c1csc([C@@H](C[C@H](C(C)C)N(C)C(=O)CNC(=O)[C@H]2CCCCN2C)OC(C)=O)n1 | > 14.3 µM | > 7.3 µM | > 3.79 µM | > 14.3 µM | 1.38 µM | > 14.3 µM | > 14.3 µM | 2.63 µM | > 6.66 µM | > 14.3 µM | 2180 nM | 444 nM | 463 nM | 3120 nM | 464 nM | 4890 nM | 0.534 µM | 254 nM | 612 nM | 514 nM
3 | CCCCCCCCCCCCCC(=O)O[C@H]1CC[C@H](NC(=O)[C@H](OC)[C@H](O)[C@@H](O)[C@H](O)/C=C/C(C)C)C(=O)N(C)C1 | 15 µM and 4.84 µM | 0.337 µM and 0.0726 µM | 0.269 µM and 0.168 µM | 15 µM and 5.24 µM | > 23.8 µM | 15 µM and 2.38 µM | 15 µM and > 23.8 µM | 0.0541 µM | 0.371 µM and 3.01 µM | 0.0655 µM and 0.00779 µM | 2.38 nM | 3.47 nM | 6.89 nM | 2.38 nM | 453 nM | 23.5 nM | 0.0217 µM |  | 2.38 nM | 2.38 nM
4 | CCCCCCCCCC1CC(=O)OC23CCCC(=O)C12O3 (centres undefined) | > 100 µM | > 100 µM | > 100 µM | 71.4 µM | > 100 µM | > 100 µM | > 100 µM | > 100 µM | > 100 µM | > 100 µM |  |  |  |  |  |  |  |  |  | 
5 | O=C([O-])c1ccc([I+]c2ccccc2)cc1 | > 100 µM | > 100 µM | > 100 µM | > 100 µM | > 100 µM | > 100 µM | > 100 µM | > 100 µM | > 100 µM | > 100 µM |  |  |  |  |  |  |  |  |  | 
6 | O=c1[nH]c2ccccc2cc1-c1nnc(Cc2ccccc2)o1 | 28.2 µM | 16.4 µM | 5.9 µM | 9.22 µM | 27.1 µM | 42 µM | 21.4 µM | 15.3 µM | 28.3 µM | 15.6 µM | 3460 nM | 3430 nM | 2270 nM | 2670 nM | 13300 nM | 10700 nM | 6.07 µM | 3340 nM | 6630 nM | 3430 nM
7 | O=C1OC(=O)c2c1nc1ccccc1c2-c1ccccc1 | > 100 µM | > 100 µM | > 100 µM | > 100 µM | > 100 µM | > 100 µM | > 100 µM | > 100 µM | > 100 µM | > 100 µM |  |  |  |  |  |  |  |  |  | 
8 | S=C(Sc1ccc(Cl)cc1)Sc1ccc(Cl)cc1 | 5.34 µM | 3.11 µM | 2.33 µM | 4.53 µM | 7.9 µM | 6.6 µM | 16.3 µM | 5.01 µM | 13.4 µM | 10.6 µM | 2120 nM | 1680 nM | 1110 nM | 1270 nM | 2910 nM | 2100 nM | 3.5 µM | 1990 nM | 3120 nM | 3150 nM
9 | C#COc1cccc(Nc2ncnc3cc(NC(=O)[C@@H](C)Cl)ccc23)c1 | > 62.5 µM | 32.8 µM | 40.8 µM | > 62.5 µM | 49.9 µM | > 62.5 µM | 44.8 µM | > 62.5 µM | > 62.5 µM | > 62.5 µM | 16800 nM | 4090 nM | 3960 nM | 4290 nM | 7160 nM | 16900 nM | 8.03 µM | > 62500 nM | 7630 nM | 5480 nM
10 | COS(=O)c1cc(Cl)cc(Cl)c1OC(=O)CSSCC(=O)Oc1c(Cl)cc(Cl)cc1S(=O)OC (centres undefined) | 37.3 µM | 32.4 µM | 30.2 µM | 46.2 µM | 54.1 µM | 44.9 µM | 80.1 µM | 53.2 µM | 55.5 µM | 21.4 µM |  |  |  |  |  |  |  |  |  | 
11 | CN(C)CCCOc1ccc(NC2=C(Cl)C(=O)C(Nc3ccc(OCCCN(C)C)cc3)=C(Cl)C2=O)cc1 | 1.05 µM | 2.59 µM | 0.602 µM | 2.38 µM | 3.32 µM | 3.17 µM | 3.4 µM | 1.08 µM | 2.55 µM | 3.09 µM | 548 nM | 1310 nM | 236 nM | 325 nM | 1660 nM | 1560 nM | 1.78 µM | 567 nM | 872 nM | 1610 nM
12 | Nc1ncnc2c1c(-c1ccc(Oc3ccccc3)cc1)nn2CC1SSCC1O (centres undefined) | 15.2 µM | 5.07 µM | 9.49 µM | 0.621 µM | 11.6 µM | 7.01 µM | 14.9 µM | 8.23 µM | 7.97 µM | 1.33 µM | 4970 nM | 1290 nM | 2620 nM | 124 nM | 5100 nM | 126 nM | 5.79 µM | 1720 nM | 111 nM | 630 nM
13 | Nc1nc(Cl)c2ncn(Cc3ccc(C45CC6CC(CC(C6)C4)C5)c(OCc4cc(F)c(F)cc4F)c3)c2n1 | 11.3 µM | 2.24 µM | 12.3 µM | 2.71 µM | 22.8 µM | 15.2 µM | > 100 µM | 6.03 µM | 5.89 µM | 12.6 µM | 3050 nM | 392 nM | 2800 nM | 837 nM | 8780 nM | 3010 nM | 27.5 µM | 2020 nM | 2390 nM | 1640 nM
14 | C/C(=C/CCC(C)[C@@H]1CC[C@]2(C)C3=C(CC[C@@]12C)[C@@]1(C)CCC(=O)C(C)(C)[C@@H]1CC3)C(=O)O (some centres undefined) | 2.89 µM | 2.44 µM | 2.21 µM | 3.24 µM | 2.39 µM | 3.08 µM | 3.22 µM | 2.09 µM | 4.02 µM | 1.76 µM | 1210 nM | 1070 nM | 728 nM | 1460 nM | 975 nM | 1470 nM | 1.69 µM | 783 nM | 1280 nM | 469 nM
15 | CC(=O)Nc1cccc(C#Cc2cncnc2Nc2ccc(OCc3cccc(F)c3)c(Cl)c2)c1 | > 25 µM | > 25 µM | 23.9 µM | > 25 µM | > 16.6 µM | > 25 µM | > 25 µM | > 22.5 µM | > 25 µM | > 25 µM | 10200 nM | 8120 nM | 4470 nM | 6820 nM | 1100 nM | 16600 nM | 13.2 µM | 4050 nM | 8940 nM | 8880 nM
16 | C#Cc1cccc(NC(=O)/C=C\C(=O)O)c1 | > 100 µM | > 100 µM | > 100 µM | > 100 µM | > 100 µM | > 100 µM | > 100 µM | > 100 µM | > 100 µM | > 100 µM |  |  |  |  |  |  |  |  |  | 
17 | Nc1nc(-c2ccccc2)c(CC(=O)O)s1 | > 100 µM | > 100 µM | > 100 µM | > 100 µM | > 100 µM | > 100 µM | > 100 µM | > 100 µM | > 100 µM | > 100 µM |  |  |  |  |  |  |  |  |  | 
